Assay [1] concerns male broilers. The assay is described as follows: Study 1: growth performance and carcass responses of male broilers, compounds in feed vs positive and negative controls. The class given is in vivo, chicken. The settings on record: 14 days; for change in vivo at 15 ppm, 15 µg/mL: Gallus gallus, feed or water, 336 h; for change in vivo at 15 ppm, 15 µg/mL / Ave daily live wt gain % inc. / Breast wt % inc. / Feed intake % inc. / Gain effic % inc. / Leg wt % inc. / Fat Pad wt % dec.: 15 ppm in feed ad libitum; for change in vivo at 15 ppm, 15 µg/mL / Ave daily live wt gain % inc. / Breast wt % inc. / Feed intake % inc. / Gain effic % inc. / Leg wt % inc.: percent change from negative control; for Fat Pad wt % dec.: percent decrease from negative control; for improvement versus negative control and positive control (in words): positive control = Compound 1. The source says: An objective of this study is to evaluate growth performance and carcass responses of male broilers by comparing non-zero dosages of the above compounds versus a positive control (Compound 1) and negative controls. Table 1 sets out the specific treatment groups:
The route of administration is oral, with the compounds mixed in feed, and provided Ad libitum. The age of the chickens of Day 1 of the study is 35 days old. Body weights are taken on the following days: • 1) Study Day 1 (pen weight) • 2) Study Day 14 (individual animal weights) • 3) Study Day 15 (individual weights on selected animals) • 4) Study Day 16 (blocks 1-5) • 5) Study Day 17 (blocks 6-10).
(§1) Following collection of final weights, the following processing data is collected (hot weights) on individual animals: • 1) Live weight • 2) Hot carcass weight • 3) Fat pad weight • 4) Hot breast muscle weight • 5) Hot bone in leg weight

Assay [2] concerns male broilers. The assay is described as follows: Study 2: growth performance and carcass responses of male broilers, compounds in feed in the last 14 days prior to slaughter. It counts as in vivo, chicken. The method, then: Compounds 2, 5, and 9 are used in this study. The study is conducted to evaluate growth performance and carcass responses of male broilers by comparing non-zero dosages of the compounds, versus negative control, administered in the last 14 days prior to slaughter. Table 3 sets out the specific treatment groups.
The route of administration is oral, with the compounds mixed in feed, and provided Ad libitum. The age of the chickens of Day 1 of the study is 35 days old. Body weights are taken on the following days: • 1) Study Day 1 (pen weight) • 2) Study Day 15 (individual animal weights) • 3) Study Day 16 (individual weights on selected animals in animals in blocks 1-4) • 4) Study Day 17 (individual weights on selected animals in animals in blocks 5-8)
as §1

Where [3] appears, read: male broilers 35 days old at Day 1, * in cell = not significant vs negative control, read-out: ADG % inc.
[4] abbreviates: male broilers, * in cell = not significant, read-out: Hot carcass wt % inc.
The mark [5] stands for this setting: male broilers, * in cell = not significant.

Where a name gives a salt, the structure may show the parent alone. Read-outs that look alike come from different tables or passages of the source.

The values below come from US20150203471A1, “METHODS FOR IMPROVING CHICKEN PRODUCTION” (ELI LILLY AND COMPANY, priority 2012, published 2015).

`CC(C)(Cc1ccc(Oc2ncccc2C(N)=O)cc1)NC[C@H](O)COc1ccccc1-c1cc2ccccc2[nH]1` [Compound 4, 2-{4-[2-({(2S)-2-hydroxy-3-[2-(1H-indol-2-yl)phenoxy]propyl}amino)-2-methylpropyl]phenoxy}pyridine-3-carboxamide]: the change in vivo at 15 ppm, 15 µg/mL with male broilers [1] (setting [3]) is -1.6%; in the assay on male broilers [1] (setting [4]), 0.3%.

`CC(C)(Cc1ccc(Oc2ccc(C(=O)N3CCOCC3)cn2)cc1)NC[C@H](O)COc1cccc2[nH]ncc12` [Compound 2, (2S)-1-{[1,1-dimethyl-2-(4-{[5-(morpholin-4-ylcarbonyl)pyridin-2-yl]oxy}phenyl)ethyl]amino}-3-(1H-indazol-4-yloxy)propan-2-ol]: in the assay on male broilers [1] (setting [5]), the “Ave daily live wt gain % inc.” value is 8.3%, the “Breast wt % inc.” value worked out at 6.1%, the “Feed intake % inc.” value is on record as 4.8% and the “Gain effic % inc.” value was 3.8%. Moreover, in the assay with male broilers [1] (setting [5]), the “Leg wt % inc.” value was 8.2% and the “Fat Pad wt % dec.” value is reported as 12.8* %. Further, in the assay with male broilers [1] (15 ppm in feed), the “fat pad weight (in words)” value is “reduce fat pad weight”; the “feed intake (in words)” value is on record as “significant increase in feed intake”; the “gain versus untreated control (in words)” value is listed as “significantly greater than untreated control”; the “improvement versus negative control and positive control (in words)” value was “significantly better improvement than both the negative control and the positive control”. Besides, the change in vivo at 15 ppm, 15 µg/mL with male broilers [1] (setting [3]) is 8.7%. Besides, in the assay with male broilers [1] (setting [4]), the change in vivo at 15 ppm, 15 µg/mL turned out to be 6.1%. Also, the “ADFI versus negative control group” value in the assay on male broilers [2] (3.5 ppm in feed) is listed as “significantly lower”. Also, in the assay with male broilers [2] (7 ppm in feed), the “F/G ratio (feed:gain efficiency) versus negative control group” value (“F/G ratio” below) was “significantly lower”, the “G/F ratio (gain:feed efficiency) versus negative control group” value (shortened to “G/F ratio”) is listed as “significantly higher”, the “hot bone-in leg weight versus negative control group” value was “significantly higher” and the “hot breast muscle weight versus negative control group” value is “significantly higher”. Further, the “hot carcass weight versus negative control group” value in the assay with male broilers [2] (7 ppm in feed) was “significantly higher”.

With `CC(C)(Cc1ccc(Oc2ccc(C(=O)O)cc2)cc1)NC[C@H](O)COc1cccc(O)c1` (stereo in doubt) [Compound 8, 4-[4-(2-{[2-hydroxy-3-(3-hydroxyphenoxy)propyl]amino}-2-methylpropyl)phenoxy]benzoic acid dihydrochloride], the change in vivo at 15 ppm, 15 µg/mL with male broilers [1] (setting [3]) was -0.4%; in the assay on male broilers [1] (setting [4]) it was 0.8%.

As for `CC(C)(Cc1ccc(Oc2ccc(S(C)(=O)=O)cc2S(C)(=O)=O)cc1)NC[C@H](O)COc1cccc2[nH]c(C(N)=O)cc12` [Compound 7, 4-({(2S)-3-[(2-{4-[2,4-bis(methylsulfonyl)phenoxy]phenyl}-1,1-dimethylethyl)amino]-2-hydroxypropyl}oxy)-1H-indole-2-carboxamide], the change in vivo at 15 ppm, 15 µg/mL in the assay on male broilers [1] (setting [3]) is 2%; with male broilers [1] (setting [4]), 1.2%.

On to `CC(C)(Cc1ccc(Oc2ccc(C(=O)N3CCOCC3)cn2)cc1)NC[C@H](O)COc1cccc2[nH]ccc12` [Compound 6, (2S)-1-{[1,1-dimethyl-2-(4-{[5-(morpholin-4-ylcarbonyl)pyridin-2-yl]oxy}phenyl)ethyl]amino}-3-(1H-indol-4-yloxy)propan-2-ol], for which the change in vivo at 15 ppm, 15 µg/mL in the assay on male broilers [1] (setting [3]) is 3.9%; with male broilers [1] (setting [4]), 3.8%.

Regarding `CC(C)(Cc1ccc(Oc2ncccc2C(N)=O)cc1)NC[C@H](O)COc1cccc2[nH]ncc12` [Compound 9, 2-[4-(2-{[(2S)-2-hydroxy-3-(1H-indazol-4-yloxy)propyl]amino}-2-methylpropyl)phenoxy]pyridine-3-carboxamide], in the assay with male broilers [1] (setting [5]), the “Ave daily live wt gain % inc.” value was found to be 9.3%, the “Breast wt % inc.” value stood at 4.8%, the “Feed intake % inc.” value was 2.1* % and the “Gain effic % inc.” value was 6.7%. Besides, in the assay with male broilers [1] (setting [5]), the “Leg wt % inc.” value was 7.9% and the “Fat Pad wt % dec.” value amounted to 17.8%. Further, in the assay on male broilers [1] (15 ppm in feed), the “fat pad weight (in words)” value is given as “reduce fat pad weight”, the “feed intake (in words)” value was “significant increase in feed intake”, the “gain versus untreated control (in words)” value was “significantly greater than untreated control” and the “significance of the fat pad weight difference” value was “significant”. Besides, the “improvement versus negative control and positive control (in words)” value in the assay with male broilers [1] (15 ppm in feed) is “significantly better improvement than both the negative control and the positive control”. Also, in the assay with male broilers [1] (setting [3]), the change in vivo at 15 ppm, 15 µg/mL came to 8.9%. Moreover, the change in vivo at 15 ppm, 15 µg/mL in the assay with male broilers [1] (setting [4]) amounted to 5%. Also, in the assay with male broilers [2] (3.5 ppm in feed), the “F/G ratio” value is reported as “significantly lower”, the “G/F ratio” value is reported as “significantly higher”, the “hot bone-in leg weight versus negative control group” value is “significantly higher” and the “hot breast muscle weight versus negative control group” value is “significantly higher”. The “hot carcass weight versus negative control group” value with male broilers [2] (3.5 ppm in feed) is on record as “significantly higher”. For the same molecule, in the assay on male broilers [2] (7 ppm in feed), the “ADFI versus negative control group” value was “significantly higher”, the “ADG versus negative control group” value is on record as “significantly higher”, the “F/G ratio” value was “significantly lower” and the “G/F ratio” value was “significantly higher”. In the assay on male broilers [2] (7 ppm in feed), the “hot bone-in leg weight versus negative control group” value was “significantly higher”, the “hot breast muscle weight versus negative control group” value is recorded as “significantly higher” and the “hot carcass weight versus negative control group” value is recorded as “significantly higher”.

`CC(C)(Cc1ccc(Oc2ncccc2C#N)cc1)NC[C@H](O)COc1ccccc1-c1cccs1` [Compound 1, 2-[4-(2-{[(2S)-2-hydroxy-3-(2-thiophen-2-ylphenoxy)propyl]amino}-2-methylpropyl)phenoxy]pyridine-3-carbonitrile, reference compound]: in the assay with male broilers [1] (setting [5]), the “Ave daily live wt gain % inc.” value stood at 4.0%, the “Breast wt % inc.” value is recorded as 3.5* %, the “Feed intake % inc.” value is recorded as 2.7% and the “Gain effic % inc.” value was 1.6* %. In addition, in the assay with male broilers [1] (setting [5]), the “Leg wt % inc.” value was 1.2* % and the “Fat Pad wt % dec.” value is listed as 9.8* %. For the same molecule, the “growth performance parameters improved (in words)” value in the assay with male broilers [1] (15 ppm in feed, vs negative control) was “improved ADG, feed intake, average daily live weight gain only”. In addition, the change in vivo at 15 ppm, 15 µg/mL with male broilers [1] (setting [3]) amounted to 4.4%. For the same molecule, the change in vivo at 15 ppm, 15 µg/mL with male broilers [1] (setting [4]) came out at 2.4%.

On to `CC(C)(Cc1ccc(Oc2ccc(S(C)(=O)=O)cc2)cc1)NC[C@H](O)COc1cccc2[nH]c(=S)[nH]c12` [Compound 3, 4-({(2S)-3-[(1,1-dimethyl-2-{4-[4-(methylsulfonyl)phenoxy]phenyl}ethyl)amino]-2-hydroxypropyl}oxy)-1,3-dihydro-2H-benzimidazole-2-thione], for which the values for the change in vivo at 15 ppm, 15 µg/mL with male broilers [1] (setting [3]) and with male broilers [1] (setting [4]) were 1.6% and 2.7%, respectively.
